# Read-outs that look alike come from different tables or passages of the source.
# Experiments:
# [1] = From the text: ^++ D'Amour,D.E. and Smith,D.L.: J.Pharm.Expt.Ther. 72. 74 (1941)
# [2] = tested on: citric acid aerosol induced cough; assay: animal or person; format: in vivo, Wistar rats; conditions: for ED50: Rattus norvegicus, read-out: AtD50
# Protocol: The anti-tussive activity in rats was tested by the method of Gosswald. Wistar rats weighing 130 to 180 g were placed in a plexi box (23 × 22 × 11 cm) and cough responses were elicited by citric acid aerosol (10%). The latency period of cough was measured before and after drug administration. The control latency was determined 18 hours before the drug administration. Animals with less than 60 second control latency were used for the experiments. […] Each animal was exposed to citric acid aerosol for a period of 3 minutes 30 seconds and 60 minutes after drug administration. […] Ten animals were used at each dose level. The anti-tussive dose (AtD50) was calculated according to Litchfield and Wilcoxon. The drugs were administered by subcutaneous and oral routes.
# [3] = Blood pressure changes in anesthetized cats; conditions: for Change in blood pressure: drop from control
# Protocol: Blood pressure changes were studied in cats anesthetized with pentabarbitone sodium (35 mg/kg, i.p.). The substances were injected into the right femoral vein, responses to drugs were measured by means of a mercury manometer and recorded on a smoke cylinder.
# [4] = Analgesic ED50, hot plate test, i.p. (footnote of Table 4); format: in vivo; conditions: for ED50: ip, read-out: ED50 (analgesic)
# Protocol: 0.025 mg./kg. i.p., Compound "A": 0.0125 mg./kg. i.p. (measured by the ho
# Remark: listed apart in the source
# in vivo = conditions: rat, sc
# [5] = Analgesic activity, writhing test (Van der Wende and Margolin), s.c., mice; conditions: Mus musculus, sc, read-out: ED50 (Writhing test)
# [6] = Physical dependency disposition test (spring-test; jumping after naloxone) for 2 days on mice; conditions: Haloxone 100 mg./kg., 2nd day; for Average jump per mouse: mice
# Protocol: ^+ The total dosage was added intraperitoneally in seven, gradually
# increasing increments, within 26 hours.
# [7] = tested on: electrical stimulation induced coughing; assay: Anti-tussive activity: electrical stimulation (superior laryngeal nerve) induced coughing in cats (method of Domenjoz); format: in vivo; conditions: for ED50 / ED100: Felis catus; for ED50: read-out: AtD50; for ED100: read-out: AtD100
# Protocol: Anti-tussive activity in cats was determined by the method of Domenjoz. Cats weighing 2.5 to 3.5 kg were anesthetized with an i.p. dose of 30 mg per kg of sodium pentobarbitone. […] The cough responses were measured by means of a Marey-tambour connected to a face mask and recorded on a smoked paper. Drugs were given intravenously in increasing doses. The effect of each dose was measured on at least five cats. The effects of the drug was calculated from the changes of amplitude of cough curves. If no coughing was produced by two successive stimulations, the dose was taken as the effective anti-tussive dose (AtD100). The anti-tussive dose (AtD50) which reduces the control response by 50% was calculated by the method of Litchfield and Wilcoxon.
# [8] = rats, s.c., 95% confidence limits on the next line
# [9] = sc, rats, s.c., limits in brackets
# [10] = rats, s.c., 95% confidence limits given
# [11] = total dosage 1 i.p. in 26 hours
# [12] = total dosage 10 i.p. in 26 hours
# [13] = total dosage 40 i.p. in 26 hours
# [14] = total dosage 70 i.p. in 26 hours
# [15] = cats, i.v., no coughing by two successive stimulations
# [16] = total dosage 100 i.p. in 26 hours
# [17] = total dosage 200 i.p. in 26 hours
# [18] = total dosage 400 i.p. in 26 hours
# [19] = total dosage 1000 i.p. in 26 hours
# [20] = anesthetized cats, 0.5 mg/kg i.v.
# [21] = anesthetized cats, 0.5 mg/kg i.v., means ± S.E.
# [22] = iv, cats, i.v., no coughing by two successive stimulations
structure (smiles),measurement,setting,value
"CN1CC[C@]23c4c5ccc(O)c4O[C@H]2[C@H](N=[N+]=[N-])CC[C@H]3[C@H]1C5 [Azidomorphine, 6-deoxy-6-azido-7,8-dihydroisomorphine]",ED50 (tail flick test),[1]; [8],0.012 s.c. mg./kg.
same,ED50,[2]; [9],0.034 mg/kg
same,Ratio codeine/drug (AtD50),"[2]; rats, s.c.",558.82
same,Change in blood pressure,"[3]; anesthetized cats, 0.0035 mg/kg i.v.",40 ± 3.4 mm Hg
same,Blood pressure after drug,"[3]; anesthetized cats, 0.0035 mg/kg i.v., means ± S.E.",103 ± 9.3 mm Hg
same,tolerance to the vasodepressor responses,[3]; in vivo,"cross tolerance between morphine, codeine, azidomorphine and 14-hydroxyazidomorphine* was observed"
same,ED50,[4],0.025 mg/kg
same,ED50 (hot plate),[10],0.016 mg./kg.s.c.
same,LD50,in vivo,13 mg/kg
same,ED50,[5],0.013 mg/kg
same,Average jump per mouse,[6]; [11],0.0
same,Average jump per mouse,[6]; [12],1.4
same,Average jump per mouse,[6]; [13],10.1
same,Average jump per mouse,[6]; [14],7.4
same,Jumping mice/examined mice,[6]; [11],0/25
same,Jumping mice/examined mice,[6]; [12],10/25
same,Jumping mice/examined mice,[6]; [13],19/25
same,Jumping mice/examined mice,[6]; [14],12/25
CN1CC[C@]23c4c5ccc(O)c4O[C@H]2[C@@H](O)C=C[C@H]3[C@H]1C5 [Morphine],ED50 (tail flick test),"[1]; rat, in vivo, sc",1.8 s.c. mg./kg.
same,ED50,[7]; iv,0.61 mg/kg
same,AtD100,[7]; [15],1.28 ± 0.32 mg/kg i.v.
same,Change in blood pressure,"[3]; anesthetized cats, 1.03 mg/kg i.v.",39 ± 2.1 mm Hg
same,Blood pressure after drug,"[3]; anesthetized cats, 1.03 mg/kg i.v., means ± S.E.",92 ± 1.0 mm Hg
same,blood pressure effect in words,"[3]; anesthetized cats, i.v.",only morphine produced a biphasic hypotensive effect
same,ED50 (analgesic),"[4]; i.p., hot plate test",5 mg./kg. i.p.
same,ED50 (hot plate),"rat, in vivo, sc",4.7 mg./kg.s.c.
same,ED50,[5],0.69 mg/kg
same,Average jump per mouse,[6]; [16],9.7
same,Average jump per mouse,[6]; [17],46.4
same,Average jump per mouse,[6]; [18],42.7
same,Average jump per mouse,[6]; [19],48.7
same,Jumping mice/examined mice,[6]; [16],20/25
same,Jumping mice/examined mice,[6]; [17],25/25
same,Jumping mice/examined mice,[6]; [18],25/25
same,Jumping mice/examined mice,[6]; [19],25/25
COc1ccc2c3c1O[C@H]1[C@H](N=[N+]=[N-])CC[C@H]4[C@@H](C2)N(C)CC[C@@]341 [Azidocodeine],Ratio codeine/drug (AtD50),"[2]; rats, s.c.",12.10
same,AtD50,"[2]; rats, s.c., limits in brackets",1.57 (1.20-2.41) mg/kg s.c.
same,AtD50,"[7]; cats, i.v.",0.40 mg/kg i.v.
same,Ratio codeine/drug (AtD50),"[7]; cats, i.v.",3.63
same,Ratio codeine/drug (AtD100),"[7]; cats, i.v.",4.69
same,AtD100,[7]; [15],1.08 ± 0.04 mg/kg i.v.
same,Change in blood pressure,[3]; [20],6 ± 3.8 mm Hg
same,Blood pressure after drug,[3]; [21],122 ± 5.2 mm Hg
same,blood pressure effect in words,"[3]; anesthetized cats, i.v.","The substances studied, except azidocodeine and 14-hydroxy-azidocodeine, lowered blood pressure"
"CN1CC[C@]23c4c5ccc(O)c4O[C@H]2[C@H](N=[N+]=[N-])CC[C@@]3(O)[C@H]1C5 [Compound ""A"", 6-deoxy-6-azido-14-hydroxy-7,8-dihydroisomorphine]",ED50 (tail flick test),[1]; [8],0.029 s.c. mg./kg.
same,ED50,[2]; po,10 mg/kg
same,ED50,[2]; [9],0.021 mg/kg
same,anti-tussive activity in words,"[2]; rat, in vivo",superior anti-tussive to those anti-tussives currently in use
same,Ratio codeine/drug (AtD50),"[2]; rat, in vivo, po",10.00
same,potency as an anti-tussive relative to codeine,"[2]; rat, in vivo, sc",904 times
same,Ratio codeine/drug (AtD50),"[2]; rats, s.c.",904.76
same,ED50,[7]; iv,0.012 mg/kg
same,ED100,[7]; iv,0.02 ± 0.002 mg/kg
same,Ratio codeine/drug (AtD50),"[7]; in vivo, iv",120.83
same,Ratio codeine/drug (AtD100),"[7]; in vivo, iv",253.50
same,tolerance to the vasodepressor responses,[3]; in vivo,"cross tolerance between morphine, codeine, azidomorphine and 14-hydroxyazidomorphine* was observed"
same,blood pressure effect in words,"[3]; in vivo, iv",greatest drop in blood pressure of all compounds tested
same,Blood pressure after drug,"[3]; in vivo, iv, 0.035 mg/kg",97 ± 4.5 mm Hg
same,ED50,[4]; hot plate test,0.0125 mg/kg
same,therapeutical indices in words,"rat, in vivo",more favorable therapeutical indices than any of the known substances with similar biological activities
same,ED50 (hot plate),[10],0.012 mg./kg.s.c.
same,LD50,in vivo,200 mg/kg
same,ED50,[5],0.051 mg/kg
same,Average jump per mouse,[6]; [12],0.9
same,Average jump per mouse,[6]; [14],3.8
same,Jumping mice/examined mice,[6]; [12],3/25
same,Jumping mice/examined mice,[6]; [14],14.25
COc1ccc2c3c1O[C@H]1[C@@H](O)C=C[C@H]4[C@@H](C2)N(C)CC[C@@]341 [Codeine],ED50,[2]; [9],19 mg/kg
same,ED50,"[2]; rats, oral, limits in brackets",100 mg/kg
same,ED100,[7]; [22],5.07 ± 1.87 mg/kg
same,ED50,"[7]; iv, cats, i.v.",1.45 mg/kg
same,Change in blood pressure,"[3]; anesthetized cats, 1.5 mg/kg i.v.",26 ± 4.9 mm Hg
same,Blood pressure after drug,"[3]; anesthetized cats, 1.5 mg/kg i.v., means ± S.E.",98 ± 5.3 mm Hg
same,tolerance to the vasodepressor responses,"[3]; anesthetized cats, successive administrations","cross tolerance between morphine, codeine, azidomorphine and 14-hydroxyazidomorphine* was observed"
COc1ccc2c3c1O[C@H]1C(N=[N+]=[N-])CC[C@@]4(O)[C@@H](C2)N(C)CC[C@]314 (some centres unmarked) [14-OH-azidocodeine],ED50,[2]; [9],0.82 mg/kg
same,Ratio codeine/drug (AtD50),"[2]; rats, s.c.",23.17
same,ED100,[7]; [22],1.47 ± 0.07 mg/kg
same,ED50,"[7]; iv, cats, i.v.",0.6 mg/kg
same,Ratio codeine/drug (AtD50),"[7]; cats, i.v.",2.42
same,Ratio codeine/drug (AtD100),"[7]; cats, i.v.",2.91
same,Change in blood pressure,[3]; [20],3 ± 1.3 mm Hg
same,Blood pressure after drug,[3]; [21],126 ± 6.6 mm Hg
same,blood pressure effect in words,"[3]; anesthetized cats, i.v.","The substances studied, except azidocodeine and 14-hydroxy-azidocodeine, lowered blood pressure"
CC(C)=CCN1CCC2(C)c3cc(O)ccc3CC1C2C (centres unmarked) [Pentazocine],ED50 (tail flick test),[1]; [8],12 s.c. mg./kg.
same,ED50 (hot plate),[10],9.1 mg./kg.s.c.
same,LD50,in vivo,280 mg/kg
same,ED50,[5],8.1 mg/kg
CCC(=O)C(CC(C)N(C)C)(c1ccccc1)c1ccccc1 (centres unmarked) [Methadone],ED50 (tail flick test),"[1]; rat, in vivo, sc",1.6 s.c. mg./kg.
same,ED50 (hot plate),"rat, in vivo, sc",1.9 mg./kg.s.c.
same,LD50,in vivo,28 mg/kg
same,ED50,[5],0.71 mg/kg
CCOC(=O)C1(c2ccccc2)CCN(C)CC1 [Petidine],ED50 (tail flick test),[1]; [8],4.3 s.c. mg./kg.
same,ED50 (hot plate),[10],4.9 mg./kg.s.c.
same,LD50,in vivo,280 mg/kg
same,ED50,[5],3.3 mg/kg
